The results in this text go back to US20200087248A1, “Fluoroallylamine Derivative And Use Thereof” (SICHUAN KELUN-BIOTECH BIOPHARMACEUTICAL CO., LTD., priority 2017, published 2020).

Each structure is given as a SMILES string. Structures can show the parent of a compound that is named as a salt.

In one data set the target is T1, hERG (Homo sapiens, UniProt Q12809).
T1 construct: purchased ThermoFisher; host or cells: hERG cell membrane supplied with the kit
Nature of the data set: hERG fluorescence polarization inhibition experiment. To be noted: hERG cell membrane, 25° C. 2 hours, read-out: hERG (IC50 range, competitive binding vs tracer). The protocol:
hERG (Ether-a-go-go-related Gene Potassium Channel) Inhibition Experiment
Reagent: Predictor™ hERG Fluorescence Polarization Assay Kit, Manufacturer: ThermoFisher
The above test kit was used to evaluate the potential of the compound for inducing heart QT prolongation. According to the method as indicated in the specification of the test kit, the test compound, the positive control (E4031) and negative control (Experimental buffer solution) in the kit were added to a microwell plate containing hERG cell membrane, and then a tracer having high affinity to hERG was added. The microwell plate was then incubated at 25° C. for 2 hours, a BMG PHAREStar polyfunctional enzyme marker was used to test the variations in the fluorescent polarization value. By calculating the percent inhibition rates (%) at different concentrations, the range of the half inhibition concentration (IC50) was determined:
Percent inhibition rate (%)=(1-(mP of the test compound-mP of 30 μM E4031)/(mP of experimental buffer solution-mP of 30 μM E4031))*100.
Background: hERG is a cardiac potassium channel; its block is linked to QT prolongation.

For another data set, the target named is T2, VAP-1 (Homo sapiens, UniProt Q16853).
T2 construct: purchased R&D Systems
T2 sequence (Q16853 1-763): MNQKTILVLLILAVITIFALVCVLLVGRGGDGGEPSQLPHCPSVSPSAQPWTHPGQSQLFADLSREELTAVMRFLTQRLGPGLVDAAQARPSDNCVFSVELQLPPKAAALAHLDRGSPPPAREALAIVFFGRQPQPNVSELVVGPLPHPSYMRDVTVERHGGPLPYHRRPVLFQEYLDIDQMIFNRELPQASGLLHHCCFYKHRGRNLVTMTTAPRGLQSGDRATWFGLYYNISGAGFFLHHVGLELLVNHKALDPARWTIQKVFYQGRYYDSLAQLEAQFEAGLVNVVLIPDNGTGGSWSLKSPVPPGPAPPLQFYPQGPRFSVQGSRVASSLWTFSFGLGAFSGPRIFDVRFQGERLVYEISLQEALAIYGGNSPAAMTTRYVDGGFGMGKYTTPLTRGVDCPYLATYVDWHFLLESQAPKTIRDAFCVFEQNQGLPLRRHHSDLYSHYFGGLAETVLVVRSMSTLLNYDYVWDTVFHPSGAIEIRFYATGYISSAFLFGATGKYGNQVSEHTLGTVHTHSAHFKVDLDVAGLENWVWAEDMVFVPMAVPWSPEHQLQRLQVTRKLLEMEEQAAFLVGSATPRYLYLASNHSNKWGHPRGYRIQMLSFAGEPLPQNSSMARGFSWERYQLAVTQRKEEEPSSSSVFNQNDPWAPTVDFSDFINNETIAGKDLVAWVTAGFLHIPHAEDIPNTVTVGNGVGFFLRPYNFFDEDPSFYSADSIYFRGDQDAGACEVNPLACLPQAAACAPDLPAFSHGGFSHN
The experiment in a line: Inhibition of the enzymatic activity of VAP-1 in vitro (Amplex Red). To be noted: VAP-1 protein about 20 nM, 10 min pre-incubation, benzylamine substrate; read-out: IC50, inhibition against the enzymatic activity of VAP-1. Type of data set: biochemical. The method, then: Inhibition Experiment Against the Enzymatic Activity of VAP-1(Vascular Adhesion Protein 1) in vitro
Test kit: Amplex® Red Monoamine Oxidase Assay, Manufacturer: ThermoFisher
Reaction buffer solution: 50 mM PBS, pH 7.4
Enzyme: VAP-1, Manufacturer: R&D Systems
VAP-1 protein (about 20 nM) and different concentrations of the test compound were pre-incubated at room temperature for 10 minutes, followed by an addition of […] benzylamine hydrochloride, 1 U/mL HRP and 200 μM Amplex Red reagent according to the specification of the test kit to start the reaction. The reaction plate was placed in the enzyme marker, and in kinetic mode, fluorescence signals were measured at Ex/Em=540/590 nm. The relative inhibition activity of each concentration group was calculated, wherein the ratio (slope) of fluorescence signal to reaction time in the linear range is the reaction rate, the vehicle group (DMSO) is the negative control, and the reaction buffer solution group (without enzymes and the compounds) is the blank control. The half inhibition concentration (IC50) of the compound was calculated according to four-parameter model fitting curve.

T1 sequence (Q12809 whole entry): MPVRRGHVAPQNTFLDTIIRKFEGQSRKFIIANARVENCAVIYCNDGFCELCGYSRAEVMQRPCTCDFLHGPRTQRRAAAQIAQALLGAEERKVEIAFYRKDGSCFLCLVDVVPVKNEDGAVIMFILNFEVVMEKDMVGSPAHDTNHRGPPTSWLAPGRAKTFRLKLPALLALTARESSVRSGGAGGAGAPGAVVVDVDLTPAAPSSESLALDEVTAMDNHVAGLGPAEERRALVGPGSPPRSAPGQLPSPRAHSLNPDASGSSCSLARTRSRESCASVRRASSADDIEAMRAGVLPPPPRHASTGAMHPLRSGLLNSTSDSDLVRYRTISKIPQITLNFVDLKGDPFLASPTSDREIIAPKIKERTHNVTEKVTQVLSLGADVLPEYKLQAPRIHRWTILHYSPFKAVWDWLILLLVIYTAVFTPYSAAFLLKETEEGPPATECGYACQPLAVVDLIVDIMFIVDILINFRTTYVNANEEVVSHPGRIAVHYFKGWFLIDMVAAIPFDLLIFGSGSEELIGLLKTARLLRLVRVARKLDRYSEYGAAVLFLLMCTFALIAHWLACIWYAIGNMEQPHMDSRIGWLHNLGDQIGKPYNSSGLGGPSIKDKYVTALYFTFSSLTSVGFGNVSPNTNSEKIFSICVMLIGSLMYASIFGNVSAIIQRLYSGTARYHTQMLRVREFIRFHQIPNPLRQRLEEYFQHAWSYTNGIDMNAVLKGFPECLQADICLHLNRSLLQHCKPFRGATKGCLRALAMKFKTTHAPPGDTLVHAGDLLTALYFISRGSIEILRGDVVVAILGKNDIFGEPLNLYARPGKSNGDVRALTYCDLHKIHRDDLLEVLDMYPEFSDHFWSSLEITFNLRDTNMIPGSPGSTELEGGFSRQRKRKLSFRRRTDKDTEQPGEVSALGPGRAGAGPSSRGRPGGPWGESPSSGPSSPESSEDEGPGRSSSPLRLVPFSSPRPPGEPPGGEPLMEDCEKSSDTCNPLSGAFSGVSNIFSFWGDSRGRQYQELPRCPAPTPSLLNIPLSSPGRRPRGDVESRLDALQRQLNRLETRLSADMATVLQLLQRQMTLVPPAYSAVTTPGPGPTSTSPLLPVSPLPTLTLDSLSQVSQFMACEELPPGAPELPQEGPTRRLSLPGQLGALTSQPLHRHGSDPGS

One may read the IC50 as the concentration that inhibits the measured activity by half. Turning to `NCC(=CF)COc1ccc(C(=O)Nc2ccccc2)cc1` [TM1, N-phenyl-4-((2-aminomethyl-3-fluoroallyl)oxy)-benzamide trifluoroacetate], the IC50 on hERG was greater than 10 µM; at VAP-1 it was 0.5 nM.

Regarding `NCC(=CF)COc1ccc(C(=O)Nc2cccc3ccccc23)cc1` [TM8, 4-((2-(aminomethyl)-3-fluoroallyl)oxy)-N-(naphthyl)benzoamide trifluoroacetate], at VAP-1, the IC50 turned out to be 2.2 ± 0.1 nM.

On to `NC/C(=C\F)COc1ccc2c(c1)CCNC2=O` [TM26-E, (E)-6-((2-aminomethyl-3-fluoroallyl)oxy)-3,4-dihydroisoquinolin-1(2H)-one trifluoroacetate], for which the IC50 at hERG was greater than 10 µM; at VAP-1, 9.9 ± 1.2 nM.

In the case of `NC/C(=C\F)COc1ccc2c(c1)CN(Cc1ccc(Cl)cc1)C2=O` [TM33-E, (E)-5-((2-aminomethyl-3-fluoroallyl)oxy)-2-(4-chlorobenzyl)isoindolin-1-one], the IC50 on hERG was greater than 10 µM; on VAP-1, 4.9 ± 0.5 nM.

`NC/C(=C/F)COc1ccc2c(c1)CN(Cc1ccc(Cl)cc1)C2=O` [TM33-Z, (Z)-5-((2-aminomethyl-3-fluoroallyl)oxy)-2-(4-chlorobenzyl)isoindolin-1-one]: the IC50 on VAP-1 was 6.3 ± 1.2 nM.

As to `NCC(=CF)COc1ccc(-c2ncccn2)cc1` [TM39, 2-(4-(2-pyrimidyl)phenoxymethyl)-3-fluoroallylamine trifluoroacetate], the half-inhibitory concentration (IC50) on hERG is greater than 30 µM; on VAP-1, 1 ± 0.1 nM.

As to `NC/C(=C\F)COc1ccc(-c2nc3ccc(Cl)cc3s2)cc1` [TM41-E, (E)-2-(4-(6-chloro-benzothiazol-2-yl)phenoxymethyl)-3-fluoroallylamine trifluoroacetate], the IC50 at VAP-1 amounted to 3.1 ± 0.5 nM.

As to `NC/C(=C/F)COc1ccc(-c2nc3ccc(Cl)cc3s2)cc1` [TM41-Z, (Z)-2-(4-(6-chloro-benzothiazol-2-yl)phenoxymethyl)-3-fluoroallylamine trifluoroacetate], the concentration for half-maximal inhibition (IC50) at VAP-1 is 3.5 ± 0.4 nM.

`NC/C(=C/F)COc1ccc(-c2nc3ccccc3[nH]2)cc1` [TM42-Z, (Z)-2-(4-(1H-benzoimidazol-2-yl)phenoxymethyl)-3-ftuoroallylamine trifluoroacetate]: the results for the IC50 on hERG and at VAP-1 were greater than 10 µM and 1.5 ± 0.1 nM, respectively.

Consider `NC/C(=C\F)COc1ccc(C(=O)N2CCC(c3ccccc3)CC2)cc1` [TM44-E, (E)-(4-((2-aminomethyl-3-fluoroallyl)oxy)phenyl)-(4-phenylpiperidine-1-yl) methanone trifluoroacetate], for which, at VAP-1, the IC50 came to 12.9 ± 4.4 nM.

Turning to `NC/C(=C/F)COc1ccc(C(=O)N2CCC(c3ccccc3)CC2)cc1` [TM44-Z, (Z)-(4-((2-aminomethyl-3-fluoroallyl)oxy)phenyl)-(4-phenylpiperidine-1-yl) methanone trifluoroacetate], at VAP-1, the IC50 is 9.7 ± 0.9 nM.

For `NC/C(=C\F)COc1ccc(C(=O)N2CCc3ccccc3C2)cc1` [TM45-E, (E)-(4-((2-aminomethyl-3-fluoroallyl)oxy)phenyl)-(3,4-di hydroisoquinoline-2 (1H)-yl)methanone trifluoroacetate], the IC50 at hERG was greater than 10 µM; at VAP-1, 2.4 ± 0.7 nM.

Regarding `NC/C(=C/F)COc1ccc(C(=O)N2CCc3ccccc3C2)cc1` [TM45-Z, (Z)-(4-((2-aminomethyl-3-fluoroallyl)oxy)phenyl)-(3,4-dihydroiso-quinoline-2(1H)-yl)methanone trifluoroacetate], the values for the IC50 at hERG and on VAP-1 were greater than 10 µM and 1.1 ± 0.1 nM, respectively.

As to `NCC(=CF)COc1ccc(C(=O)N2CCC(c3ccccc3)CC2)cc1F` [TM48, (4-((2-aminomethyl-3-fluoroallyl)oxy)-3-fluorophenyl)-(4-phenylpiperidin-1-yl)methanone trifluoroacetate], at VAP-1, the IC50 is 6.5 ± 0.5 nM.

Take `NC/C(=C\F)COc1ccc(C(=O)N2CCC(c3ccccc3)CC2)cc1F` [TM48-E, (E)-(4-((2-(aminomethyl)-3-fluoroally)oxy)-3-fluorophenyl)-(4-phenylpiperidin-1-yl)methanone trifluoroacetate]: on VAP-1, the IC50 worked out at 9.2 ± 1.1 nM.

With `NC/C(=C/F)COc1ccc(C(=O)N2CCC(c3ccccc3)CC2)cc1F` [TM48-Z, (Z)-(4-((2-(aminomethyl)-3-fluoroallyl)oxy)-3-fluorophenyl)-(4-phenylpiperidin-1-yl)methanone trifluoroacetate], the IC50 at VAP-1 was determined as 10.6 ± 1.4 nM.

As to `CN(C)c1cccc(NC(=O)c2ccc(OCC(=CF)CN)cc2)c1` [TM62, N-(3-dimethylaminophenyl)-4-(2-aminomethyl-3-fluoroallyloxy)-benzamide trifluoroacetate], the figures for the IC50 on hERG and at VAP-1 were greater than 30 µM and 1.8 ± 0.2 nM, respectively.

Consider `NC/C(=C\F)COc1ccc(C(=O)Nc2ccc(F)cc2)cc1Cl` [TM65-E, (E)-N-(4-fluorophenyl)-4-((2-aminomethyl-3-fluoroallyl)oxy)-3-chloro-benzamide trifluoroacetate], for which, on VAP-1, the IC50 was determined as 4.1 ± 0.7 nM.

Consider `NC/C(=C/F)COc1ccc(C(=O)Nc2ccc(F)cc2)cc1Cl` [TM65-Z, (Z)-N-(4-fluorophenyl)-4-((2-aminomethyl-3-fluoroallyl)oxy)-3-chloro-benzamide trifluoroacetate], for which, at VAP-1, the IC50 came out at 1.7 ± 0.3 nM.

Regarding `NCC(=CF)COc1ccc(C(=O)N2CCc3cc(C(F)(F)F)ccc3C2)cc1` [TM68, (4-(2-aminomethyl-3-fluoroallyloxy)phenyl)-(6-trifluoromethyl-3,4-dihydroisoquinol-2(1H)-yl)-methanone trifluoroacetate], the IC50 on VAP-1 turned out to be 9.9 ± 1.8 nM.

`NCC(=CF)COc1ccc(C(=O)N2CCc3ccccc3[C@@H]2c2ccccc2)cc1` [TM69, (S)-(4-(2-aminomethyl)-3-fluoroallyloxy)phenyl)-(1-phenyl-3,4-dihydroisoquinol-2(1H)-yl)-methanone trifluoroacetate]: the IC50 at VAP-1 came to 10.4 ± 1.4 nM.

With `NCC(=CF)COc1ccc(C(=O)N2Cc3ccc(Cl)cc3C2)cc1` [TM71, (4-(2-aminomethyl-3-fluoroallyloxy)phenyl)-(5-chloroisoindolin-2-yl)-methanone trifluoroacetate], the IC50 at VAP-1 was found to be 2.4 ± 0.2 nM.

As for `NCC(=CF)COc1ccc(C(=O)N2CCc3ccccc3C2)cc1F` [TM72, (4-((2-aminomethyl-3-fluoroallyl)oxy)-3-fluorophenyl)-(3,4-tetrahydroisoquinoline-2(1H)-yl)methanone trifluoroacetate], on VAP-1, the IC50 came out at 3.4 ± 0.5 nM.

With `NC/C(=C\F)COc1ccc(C(=O)N2CCc3c(Cl)cccc3C2)cc1F` [TM73-E, (E)-(4-((2-aminomethyl-3-fluoroallyl)oxy)-3-fluorophenyl)-(5-chloro-3,4-di-hydroisoquinoline-2(1H)-yl)methanone trifluoroacetate], on VAP-1, the IC50 came out at 4.2 ± 0.3 nM.

In the case of `NC/C(=C/F)COc1ccc(C(=O)N2CCc3c(Cl)cccc3C2)cc1F` [TM73-Z, (Z)-(4-((2-aminomethyl-3-fluoroallyl)oxy)-3-fluorophenyl)-(5-chloro-3,4-di-hydroisoquinoline-2(1H)-yl)methanone trifluoroacetate], the half-maximal inhibitory concentration (IC50) on VAP-1 was determined as 3.7 ± 0.3 nM.

As for `NC/C(=C\F)COc1ccc(-c2nc3ccc(Cl)cc3s2)cc1F` [TM74-E, (E)-2-(4-(6-chloro-benzothiazol-2-yl)-2-fluorophenoxymethyl)-3-fluoroallylamine trifluoroacetate trifluoroacetate], on VAP-1, the IC50 is 3.2 ± 0.2 nM.

For the molecule `NC/C(=C/F)COc1ccc(-c2nc3ccc(Cl)cc3s2)cc1F` [TM74-Z, (Z)-2-(4-(6-chloro-benzothiazol-2-yl)-2-fluorophenoxymethyl)-3-fluoroallylamine trifluoroacetate trifluoroacetate], the IC50 at VAP-1 was 5.3 ± 0.2 nM.
